Measurements reported in PMC8224802 (Pharmaceutics, 2021).
Read-outs that look alike come from different tables or passages of the source.

Key:
[1] = humans; cited from earlier work
[2] = Plasma protein binding by rapid equilibrium dialysis (human plasma); assay type: in vitro ADME
Protocol: (§1) A 200 μL spiked samples and 400 μL PBS were placed into the “sample” and “buffer” chambers of the RED device, respectively. After 4-h incubation to equilibrate between the buffer and plasma compartments, the RED plate was sampled from both compartments. The samples were matrix-matched for analysis by addition of either diluted plasma or buffer; (a) blank diluted plasma added to the buffer samples and (b) blank buffer added to the diluted plasma sample, at a ratio of 50:50 v/v. The unbound fractions in microsomes and diluted plasma were determined by dividing the analyte/IS peak area ratios of the (a) sample by those of the (b) sample. The unbound fraction in diluted plasma (fu,d) was converted to the unbound fraction in undiluted plasma (fu) using a Kalvass equation as below (DF: dilution factor). (1) fu=1/DF/[(1/fu,d)−1]+1/DF

[3] = In vitro microsomal metabolism of RPG (disappearance) in HLM; assay type: in vitro ADME, human; conditions: for Km: human, human liver microsomes
Protocol: (§2) At 0, 30, and 60 min after starting the metabolic reaction, a 50 μL aliquot of the incubation mixture was sampled and transferred to a clean 1.5-mL microcentrifuge tube containing 150 μL of ice-cold acetonitrile to terminate the metabolic reaction.
(§3) The intrinsic metabolic clearance (CLint) was calculated as Vmax/Km. […] Max and Min are the initial and final Y values, respectively, and the power P represents the Hill coefficient. […] Vmax and Km are the same as those defined in Equation (2). The parameter α is indicative of the inhibition type. The mixed model is a general equation that includes competitive, uncompetitive, and noncompetitive inhibition as special cases. When α = 1, the mixed model is identical to a noncompetitive inhibition. When α is very large (α→∞) or very small (α→0), the mixed model becomes identical to competitive inhibition or uncompetitive inhibition, respectively.

[4] = Plasma protein binding by rapid equilibrium dialysis (rat plasma); assay type: in vitro ADME, Sprague-Dawley rat
Protocol: as §1

[5] = Blood-to-plasma concentration ratio (rat whole blood); assay type: in vitro ADME; conditions: RPG and QCT 5 μM each
Protocol: (§4) A plasma sample was obtained by centrifugation of the blood sample at 2000× g for 5 min.

[6] = Microsomal protein binding by rapid equilibrium dialysis (RLM); assay type: in vitro ADME, rat
Protocol: as §1

[7] = Blood-to-plasma concentration ratio (human whole blood); assay type: in vitro ADME; conditions: RPG and QCT 5 μM each
Protocol: as §4

[8] = In vitro microsomal metabolism of RPG (disappearance) in RLM; assay type: in vitro ADME, rat; conditions: RLM 0.3 mg/mL, 1–500 μM RPG, Michaelis–Menten fit
Protocol: as §2, §3

[9] = test system: microsomal metabolism of RPG in RLM; assay: In vitro inhibition of RPG metabolism by QCT in RLM; assay type: in vitro ADME, rat; conditions: RLM
Protocol: The intrinsic metabolic clearance (CLint) was calculated as Vmax/Km. […] The parameter α is indicative of the inhibition type. The mixed model is a general equation that includes competitive, uncompetitive, and noncompetitive inhibition as special cases. When α = 1, the mixed model is identical to a noncompetitive inhibition. When α is very large (α→∞) or very small (α→0), the mixed model becomes identical to competitive inhibition or uncompetitive inhibition, respectively.

[10] = In vivo oral pharmacokinetic study of RPG without or with QCT in rats; design: species or system Sprague-Dawley rats; conditions: for bioavailability: read-out: F (absolute oral bioavailability)
Protocol: Rats were anesthetized via intramuscular injection of 10 mg/kg zoletil. The femoral vein and artery of the rats were cannulated using a polyethylene tube (BD Medical, Franklin Lakes, NJ, USA). […] The vehicle solutions for the intravenous and oral doses were composed of PEG 400 and aqueous 0.3% CMC solution (50:50 v/v).
For comparison, the extent of absolute oral bioavailability (F; expressed as percent of dose administered) was calculated by dividing the dose-normalized AUC after oral administration by the dose-normalized AUC after intravenous injection. The peak plasma concentration (Cmax) and time to reach Cmax (Tmax) were obtained directly from the measured experimental data.

[11] = Sprague-Dawley, rat, plasma, po, 0.4 mg/kg, rats, RPG 0.4 mg/kg oral with QCT 100 mg/kg oral
[12] = Sprague-Dawley, rat, plasma, po, 0.4 mg/kg, rats, RPG 0.4 mg/kg oral, RPG alone
[13] = rats, RPG 0.4 mg/kg oral with QCT 100 mg/kg oral
[14] = rats, RPG 0.4 mg/kg oral, QCT 100 mg/kg oral
[15] = rats, RPG 0.4 mg/kg oral, RPG alone

- Change of fuP of RPG by the presence of QCT ([2]; human plasma, RPG and QCT 5 μM each): not significantly altered
- fraction unbound at 4 h, 5 μM ([2]; human, plasma (20-fold diluted), read-out: fuP (unbound fraction in plasma)): 0.0533 ± 0.006
- Vmax, metabolism of RPG ([3]; HLM 0.3 mg/mL, 1–500 μM RPG, Michaelis–Menten fit): 2850 ± 417 pmol/min/mg protein
- Km ([3]; Km, metabolism of RPG, HLM 0.3 mg/mL, 1–500 μM RPG, Michaelis–Menten fit): 27 to 69.4 µM
- Km ([3]; Table S3, source Figure 3, read-out: Km used for estimation of R): 27 µM
- fraction unbound at 4 h, 5 μM ([4]; Sprague-Dawley, rat, plasma (20-fold diluted), read-out: fuP (unbound fraction in plasma)): 0.0761 ± 0.0094
- Change of fuP of RPG by the presence of QCT ([4]; rat plasma, RPG and QCT 5 μM each): not significantly altered
- Change of RB of RPG by the presence of QCT [5]: not significantly altered
- Change of fuMIC of RPG by the presence of QCT ([6]; RLM, RPG and QCT 5 μM each): not significantly altered
- fraction unbound at 4 h, 5 μM ([6]; rat, liver microsomes, read-out: fuMIC (unbound fraction in liver microsomes)): 0.671 ± 0.009
- Change of RB of RPG by the presence of QCT [7]: not significantly altered
- Vmax, metabolism of RPG [8]: 3070 ± 960 pmol/min/mg protein
- Km of RPG metabolism in the Ki estimation study ([9]; QCT 0 μM): 53 µM
- Km of RPG metabolism in the Ki estimation study ([9]; QCT 200 μM): 81 µM
- AUC [10, 11]: 803 ng·h/mL
- Cmax [10, 11]: 238 ± 76 ng/mL
- half-life [10, 11]: 2.47 ± 0.817 h
- bioavailability [10, 11]: 95.1%
- Cmax [10, 12]: 129 ± 33 ng/mL
- half-life [10, 12]: 2.32 ± 1.1 h
- bioavailability [10, 12]: 50.7%
- Tmax ([10]; Sprague-Dawley, rat, plasma, po, 0.4 mg/kg, read-out: Tmax, median (range) (converted)): 0.75 h
- AeGI [10, 13]: 2.90 ± 2.50 % of dose
- AeU [10, 13]: 0.371 ± 0.336 % of dose
- Tmax, median (range) [10, 13]: 45 (30–60) min
- AUC of RPG higher with concurrent QCT than in control rats [10, 14]: 87.6%
- Cmax of RPG higher with concurrent QCT than in control rats [10, 14]: 84.2%
- AeGI [10, 15]: 3.41 ± 1.65 % of dose
- AeU [10, 15]: 0.458 ± 0.441 % of dose
- Increase of AUC of orally administered RPG by oral QCT ([10]; rats, RPG oral with QCT 100 mg/kg oral vs RPG alone): 1.88 fold
- Intestinal availability (FG) ([10]; rats, from F = Fabs × FG × FH with Fabs assumed 1): 0.572–0.620
- Fecal excretion of oral RPG ([10]; rats, oral): 2.21–5.78 % of the dose administered
SMILES: CCOc1cc(CC(=O)N[C@@H](CC(C)C)c2ccccc2N2CCCCC2)ccc1C(=O)O [RPG, Repaglinide]
- F of RPG [1]: approximately 62.5%
